# Measurements from PubChem BioAssay (NCI).
#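 Assay format: 96-well plates, 48-hour exposure. TGI marks complete inhibition of growth.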
# Key:
# Test in all cases: DTP human tumour cell line panel, 48 h
# U251 CNS = tested on: U251 CNS
# DMS 114 small cell lung = tested on: DMS 114 small cell lung
# SF-539 CNS = tested on: SF-539 CNS
# MOLT-4 leukemia = tested on: MOLT-4 leukemia
# NCI-H522 lung = tested on: NCI-H522 lung
# MALME-3M melanoma = tested on: MALME-3M melanoma
# UACC-257 melanoma = tested on: UACC-257 melanoma
# HT29 colon = tested on: HT29 colon
# UO-31 renal = tested on: UO-31 renal
# IGROV1 ovarian = tested on: IGROV1 ovarian
# SK-MEL-5 melanoma = tested on: SK-MEL-5 melanoma
# SW-620 colon = tested on: SW-620 colon
# ACHN renal = tested on: ACHN renal
# NCI-H460 lung = tested on: NCI-H460 lung
# MDA-MB-435 = tested on: MDA-MB-435
# MCF7 breast = tested on: MCF7 breast
# MDA-N = tested on: MDA-N
# A498 renal = tested on: A498 renal
# HS 578T breast = tested on: HS 578T breast
# DU-145 prostate = tested on: DU-145 prostate
SMILES,TGI (U251 CNS) [µM],TGI (DMS 114 small cell lung) [µM],TGI (SF-539 CNS) [µM],TGI (MOLT-4 leukemia) [µM],TGI (NCI-H522 lung) [µM],TGI (MALME-3M melanoma) [µM],TGI (UACC-257 melanoma) [µM],TGI (HT29 colon) [µM],TGI (UO-31 renal) [µM],TGI (IGROV1 ovarian) [µM],TGI (SK-MEL-5 melanoma) [µM],TGI (SW-620 colon) [µM],TGI (ACHN renal) [µM],TGI (NCI-H460 lung) [µM],TGI (MDA-MB-435) [µM],TGI (MCF7 breast) [µM],TGI (MDA-N) [µM],TGI (A498 renal) [µM],TGI (HS 578T breast) [µM],TGI (DU-145 prostate) [µM]
CN(CCO)c1nc(N)cc(=O)[nH]1,> 100,> 100,> 100,> 100,> 100,> 100,> 100,> 100,> 100,> 100,> 100,> 100,> 100,> 100,,,,,,
COc1cc(C2SC(N)=Nc3c2c(C)nn3C(=O)c2ccccc2O)ccc1O (stereo not drawn),> 10,,> 2.31,> 10,> 10,> 10,> 10,> 10,> 10,> 3.33,> 10,> 10,> 10,> 10,> 10,> 10,> 10,> 10,> 10,> 10
Cc1ccc2c(n1)C(=O)C=CC2=O,40.6,,35.3,> 24,3.51,16.8,14.6,38,10.4,29.3,29.4,8.76,8.63,36.2,33,53.8,20.3,31.1,> 78.5,30.7
COc1ccc2c(c1)/C(=C\c1c(C)nc3sc(C)cn13)C(=O)N2,7.2,,9.58,> 83.8,1.53,> 100,> 78.2,7.83,> 100,20.5,4.62,> 100,> 100,16.5,0.458,> 100,0.46,5.42,10.3,> 46.1
Cc1ccc2c(c1)C(=O)N1CCC[C@H]1C=N2,> 85.2,,37.3,> 84.1,22.5,35.2,> 74.3,> 55.6,> 67,> 66.3,26.7,> 83.7,> 70.9,> 71.6,33.2,> 76.5,37.6,> 100,31.5,> 100
O=C1CC(=O)NC(=NN2C(=O)/C(=C/c3ccccc3)N=C2c2ccccc2)N1,> 100,,> 100,> 100,> 100,> 100,> 100,> 100,> 100,> 100,> 100,> 100,> 100,> 100,> 100,> 100,> 100,> 100,> 100,> 100
CCCCOC(=O)NC(Nc1cccc(C(F)(F)F)c1)(C(F)(F)F)C(F)(F)F,> 100,,> 100,> 100,> 100,> 100,> 100,> 100,> 100,> 100,> 100,> 100,> 100,> 100,> 100,> 100,> 100,> 100,> 100,> 100
CC(=O)c1ccc2c(ccc(=O)n2C)c1,> 100,> 100,> 100,> 100,> 100,> 100,,> 100,,> 100,> 100,> 100,,> 100,,,,> 100,,
CC(C)OP(=O)(OC(C)C)/C(C#N)=C/c1ccco1,> 100,,> 100,> 100,> 100,> 100,> 100,> 100,9.38,> 100,> 100,> 100,> 100,> 100,> 100,> 100,> 100,> 100,> 100,> 100
CC(C)(C)c1cc2c(O)c(c1)Cc1cc(C(C#N)(Cc3ccc4ccccc4c3)Cc3ccc4ccccc4c3)cc(c1O)Cc1cc(C(C)(C)C)cc(c1O)Cc1cc(C(C#N)(Cc3ccc4ccccc4c3)Cc3ccc4ccccc4c3)cc(c1O)C2,> 100,,> 100,> 100,> 100,> 100,> 100,> 100,> 100,> 100,> 100,> 100,> 100,> 100,> 100,> 100,> 100,> 100,> 100,> 100
CC=CCOc1cc(NC(=S)OC(C)C)ccc1Cl (mixture of isomers),32.8,,36.1,38.8,28,29.6,46.5,28.7,24.7,43.2,33.1,35.3,31.6,31.8,49.9,38.2,35.4,30.7,43.9,76.9
Cc1cc(-c2nc3ccccc3s2)ccc1N,> 88.5,,> 91.6,82.2,> 61.6,> 81.5,> 100,> 87.3,88.3,> 100,> 66.8,> 100,> 95.1,> 71.7,> 79.8,> 100,> 83.6,> 94.5,> 100,> 100
Brc1c(C#CCC(c2ccccc2)(c2ccccc2)c2ccccc2)ccc(C#CCC(c2ccccc2)(c2ccccc2)c2ccccc2)c1Br,> 100,,> 100,> 100,> 100,> 100,> 100,> 100,> 100,> 100,> 100,> 100,> 100,> 100,> 100,> 100,> 100,> 100,> 100,> 100
CCN(CC)CCNC(=O)c1ccc(I)cc1,> 100,,> 100,> 100,> 100,> 100,> 100,> 100,> 100,> 100,> 100,> 100,> 100,> 100,> 100,> 100,> 100,84.9,> 100,> 100
CCOP(=O)(C/C=C/Cn1nc(Br)c(=O)[nH]c1=O)OCC,> 100,,> 100,> 100,> 100,> 100,> 100,> 100,> 100,> 100,> 100,> 100,> 100,> 100,> 100,> 100,> 100,> 100,> 100,> 100
C=C(C)CC1(O)C(=O)C(OCC)=C1OCC (stereo not drawn),> 100,,> 100,> 100,> 100,> 100,> 100,> 100,> 100,> 100,> 100,> 100,> 100,> 100,> 100,> 100,> 100,> 100,> 100,> 100
Cc1ccc(S(=O)(=O)N2C[C@](O)(c3ccccc3)[C@H]2C)cc1,> 100,,> 100,> 100,> 100,> 100,> 100,> 100,> 100,> 100,> 100,> 100,> 100,> 100,> 100,> 100,> 100,> 100,> 100,> 100
CC(=O)Oc1cc2c(c3ncccc13)OC(C)(C)C2,31.8,,26.9,29.9,8.26,23.4,29.5,36.9,> 100,12.4,25.4,> 100,23.9,31.3,24,61.8,10.9,33,24.9,28.7
Cc1cc(N=Nc2c(O)ccc3ccccc23)ccc1N=Nc1cccc([N+](C)(C)C)c1,14.1,,22.3,> 100,> 26.1,35.2,> 63.5,25.1,29.7,> 22.2,> 23.7,46.9,> 84.7,30.9,> 74.5,> 53.1,> 100,98.8,47,48.2
CN(C)Cc1cc(C(C)(C)C)ccc1-c1ccc(C(C)(C)C)cc1CN(C)C,> 100,,> 100,> 100,> 100,> 100,> 100,> 100,> 100,> 100,> 100,> 100,> 100,> 100,> 100,> 100,> 100,> 100,> 100,> 100
COc1cc(C(=O)O[C@@H]2[C@@H](OC(=O)c3cc(OC)c(OC)c(OC)c3)[C@@H](OC)O[C@@H]3CO[C@@H](c4ccccc4)O[C@@H]23)cc(OC)c1OC,> 100,,> 100,> 100,> 100,> 100,> 100,> 100,> 100,> 100,> 100,> 100,> 100,> 100,> 100,> 100,> 100,> 100,> 100,> 100
CC1(C)OB(O)OC1(C)C,,> 100,> 100,> 100,> 100,> 100,> 100,> 100,> 100,> 100,> 100,> 100,> 100,> 100,,,,> 100,,
CN(C)/N=C(/c1nc2ccc([N+](=O)[O-])cc2[nH]c1=O)C(O)c1ccco1 (stereo not drawn),> 100,> 100,> 100,> 100,92.2,> 100,> 100,> 100,90.5,> 100,> 100,> 100,> 100,> 100,,,,,,
Nc1ncc(Cl)c(NCC2(CO)CC(CCc3ccccc3)C2)n1 (stereo not drawn),> 100,,> 100,> 100,> 100,> 100,> 100,> 100,> 100,> 100,> 100,> 100,> 100,> 100,> 100,> 100,> 100,> 100,> 100,> 100
Cc1cccc(CC(Cc2c(C)cccc2C(=O)O)C(=O)O)c1 (stereo not drawn),> 100,,> 100,> 100,> 100,> 100,> 100,> 100,> 100,> 100,37.2,> 100,> 100,> 100,> 100,> 100,> 100,> 100,> 100,> 100
